# Assays:
# Assay in all cases: Test B pre-/postemergence plant response
# Type in all cases: in vivo
# [1] = test system: corn (Zea mays)
# Procedure, shortened: (§1)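 Plants treated either at seeding (loam/sand soil) or postemergence at 2 to 18 cm height, using a surfactant-containing non-phytotoxic solvent formulation. Evaluation was visual after 13 to 15 days, 0 to 100 scale relative to controls.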
# [2] = test system: woolly cupgrass (Eriochloa villosa)
# Procedure, shortened: as §1
# [3] = test system: ragweed (common ragweed, Ambrosia elatior)
# Procedure, shortened: as §1
# [4] = test system: goosegrass (Eleusine indica)
# Procedure, shortened: as §1
# [5] = test system: soybean (Glycine max)
# Procedure, shortened: as §1
# [6] = test system: johnsongrass (Sorghum halepense)
# Procedure, shortened: as §1
# [7] = test system: wheat (Triticum aestivum)
# Procedure, shortened: as §1
# [8] = test system: downy bromegrass (Bromus tectorum)
# Procedure, shortened: as §1
# [9] = test system: Surinam grass (Brachiaria decumbens)
# Procedure, shortened: as §1
# [10] = test system: Italian ryegrass (Lolium multiflorum)
# Procedure, shortened: as §1
# [11] = test system: velvetleaf (Abutilon theophrasti)
# Procedure, shortened: as §1
# [12] = test system: pigweed (Amaranthus retroflexus)
# Procedure, shortened: as §1
# [13] = test system: large crabgrass (Digitaria sanguinalis)
# Procedure, shortened: as §1
# [14] = test system: lambsquarters (Chenopodium album)
# Procedure, shortened: as §1
# [15] = test system: kochia (Kochia scoparia)
# Procedure, shortened: as §1
# [16] = test system: yellow nutsedge (Cyperus esculentus)
# Procedure, shortened: as §1
# [17] = test system: wild oat (Avena fatua)
# Procedure, shortened: as §1
# [18] = test system: blackgrass (Alopecurus myosuroides)
# Procedure, shortened: as §1
# [19] = 31 g ai/ha, postemergence, scale 0 to 100, 0 is no effect, 100 is complete control
# [20] = 250 g ai/ha, Preemergence, 0 to 100 scale
# [21] = Postemergence, 62 g ai/ha, scale 0 (no effect) to 100 (complete control), 13 to 15 days
# [22] = Postemergence, 125 g ai/ha, visual rating after 13 to 15 days, scale 0 (no effect) to 100 (complete control)
# [23] = Postemergence, 250 g ai/ha, scale 0 to 100 (0 no effect, 100 complete control)
# [24] = Preemergence, 31 g ai/ha, scale 0 to 100 (0 no effect, 100 complete control)
# [25] = Preemergence, 62 g ai/ha, scale 0 to 100, 0 no effect, 100 complete control
# [26] = Preemergence, 125 g ai/ha, scale 0 to 100, 0 no effect, 100 complete control
structure (smiles),measurement,setting,value
O=C1CCCC(O)=C1C(=O)c1cnc(-c2cccs2)n(-c2ccccc2)c1=O [Compound 66],"Plant response rating, Corn",[1]; [19],25
same,"Plant response rating, Corn",[1]; [20],0
same,"Plant response rating, Corn",[1]; [21],55
same,"Plant response rating, Corn",[1]; [22],70
same,"Plant response rating, Corn",[1]; [23],75
same,"Plant response rating, Corn",[1]; [24],0
same,"Plant response rating, Corn",[1]; [25],0
same,"Plant response rating, Corn",[1]; [26],0
same,"Plant response rating, Cupgrass, Woolly",[2]; [19],40
same,"Plant response rating, Cupgrass, Woolly",[2]; [20],75
same,"Plant response rating, Cupgrass, Woolly",[2]; [21],40
same,"Plant response rating, Cupgrass, Woolly",[2]; [22],60
same,"Plant response rating, Cupgrass, Woolly",[2]; [23],75
same,"Plant response rating, Cupgrass, Woolly",[2]; [24],25
same,"Plant response rating, Cupgrass, Woolly",[2]; [25],40
same,"Plant response rating, Cupgrass, Woolly",[2]; [26],60
same,"Plant response rating, Ragweed",[3]; [19],0
same,"Plant response rating, Ragweed",[3]; [21],10
same,"Plant response rating, Ragweed",[3]; [22],25
same,"Plant response rating, Ragweed",[3]; [23],60
same,"Plant response rating, Ragweed",[3]; [24],0
same,"Plant response rating, Ragweed",[3]; [25],0
same,"Plant response rating, Ragweed",[3]; [26],45
same,"Plant response rating, Goosegrass",[4]; [19],65
same,"Plant response rating, Goosegrass",[4]; [20],98
same,"Plant response rating, Goosegrass",[4]; [21],65
same,"Plant response rating, Goosegrass",[4]; [22],70
same,"Plant response rating, Goosegrass",[4]; [23],95
same,"Plant response rating, Goosegrass",[4]; [24],35
same,"Plant response rating, Goosegrass",[4]; [25],75
same,"Plant response rating, Goosegrass",[4]; [26],90
same,"Plant response rating, Soybean",[5]; [19],95
same,"Plant response rating, Soybean",[5]; [21],95
same,"Plant response rating, Soybean",[5]; [22],98
same,"Plant response rating, Soybean",[5]; [23],98
same,"Plant response rating, Johnsongrass",[6]; [19],45
same,"Plant response rating, Johnsongrass",[6]; [20],98
same,"Plant response rating, Johnsongrass",[6]; [21],60
same,"Plant response rating, Johnsongrass",[6]; [22],65
same,"Plant response rating, Johnsongrass",[6]; [23],65
same,"Plant response rating, Johnsongrass",[6]; [24],0
same,"Plant response rating, Johnsongrass",[6]; [25],55
same,"Plant response rating, Johnsongrass",[6]; [26],85
same,"Plant response rating, Wheat",[7]; [19],0
same,"Plant response rating, Wheat",[7]; [22],0
same,"Plant response rating, Wheat",[7]; [23],0
same,"Plant response rating, Wheat",[7]; [24],0
same,"Plant response rating, Wheat",[7]; [25],0
same,"Plant response rating, Wheat",[7]; [26],0
same,"Plant response rating, Bromegrass, Downy",[8]; [19],5
same,"Plant response rating, Bromegrass, Downy",[8]; [20],0
same,"Plant response rating, Bromegrass, Downy",[8]; [21],10
same,"Plant response rating, Bromegrass, Downy",[8]; [22],20
same,"Plant response rating, Bromegrass, Downy",[8]; [23],25
same,"Plant response rating, Bromegrass, Downy",[8]; [24],0
same,"Plant response rating, Bromegrass, Downy",[8]; [25],0
same,"Plant response rating, Bromegrass, Downy",[8]; [26],0
same,"Plant response rating, Surinam Grass",[9]; [19],65
same,"Plant response rating, Surinam Grass",[9]; [21],70
same,"Plant response rating, Surinam Grass",[9]; [22],85
same,"Plant response rating, Surinam Grass",[9]; [23],98
same,"Plant response rating, Surinam Grass",[9]; [24],35
same,"Plant response rating, Surinam Grass",[9]; [25],80
same,"Plant response rating, Surinam Grass",[9]; [26],90
same,"Plant response rating, Ryegrass, Italian",[10]; [19],0
same,"Plant response rating, Ryegrass, Italian",[10]; [21],0
same,"Plant response rating, Ryegrass, Italian",[10]; [22],5
same,"Plant response rating, Ryegrass, Italian",[10]; [23],10
same,"Plant response rating, Ryegrass, Italian",[10]; [24],0
same,"Plant response rating, Ryegrass, Italian",[10]; [25],0
same,"Plant response rating, Ryegrass, Italian",[10]; [26],0
same,"Plant response rating, Velvetleaf",[11]; [19],85
same,"Plant response rating, Velvetleaf",[11]; [21],90
same,"Plant response rating, Velvetleaf",[11]; [22],98
same,"Plant response rating, Velvetleaf",[11]; [23],100
same,"Plant response rating, Velvetleaf",[11]; [24],80
same,"Plant response rating, Velvetleaf",[11]; [25],80
same,"Plant response rating, Velvetleaf",[11]; [26],95
same,"Plant response rating, Pigweed",[12]; [19],98
same,"Plant response rating, Pigweed",[12]; [21],98
same,"Plant response rating, Pigweed",[12]; [22],100
same,"Plant response rating, Pigweed",[12]; [23],100
same,"Plant response rating, Pigweed",[12]; [24],98
same,"Plant response rating, Pigweed",[12]; [25],98
same,"Plant response rating, Pigweed",[12]; [26],98
same,"Plant response rating, Crabgrass, Large",[13]; [19],50
same,"Plant response rating, Crabgrass, Large",[13]; [20],100
same,"Plant response rating, Crabgrass, Large",[13]; [21],55
same,"Plant response rating, Crabgrass, Large",[13]; [22],65
same,"Plant response rating, Crabgrass, Large",[13]; [23],70
same,"Plant response rating, Crabgrass, Large",[13]; [24],70
same,"Plant response rating, Crabgrass, Large",[13]; [25],85
same,"Plant response rating, Crabgrass, Large",[13]; [26],95
same,"Plant response rating, Lambsquarters",[14]; [19],95
same,"Plant response rating, Lambsquarters",[14]; [20],100
same,"Plant response rating, Lambsquarters",[14]; [21],95
same,"Plant response rating, Lambsquarters",[14]; [22],95
same,"Plant response rating, Lambsquarters",[14]; [23],100
same,"Plant response rating, Lambsquarters",[14]; [24],98
same,"Plant response rating, Lambsquarters",[14]; [25],98
same,"Plant response rating, Lambsquarters",[14]; [26],98
same,"Plant response rating, Kochia",[15]; [19],80
same,"Plant response rating, Kochia",[15]; [20],85
same,"Plant response rating, Kochia",[15]; [21],85
same,"Plant response rating, Kochia",[15]; [22],90
same,"Plant response rating, Kochia",[15]; [23],98
same,"Plant response rating, Kochia",[15]; [24],80
same,"Plant response rating, Kochia",[15]; [25],80
same,"Plant response rating, Kochia",[15]; [26],85
same,"Plant response rating, Nutsedge, Yellow",[16]; [19],25
same,"Plant response rating, Nutsedge, Yellow",[16]; [21],45
same,"Plant response rating, Nutsedge, Yellow",[16]; [22],65
same,"Plant response rating, Nutsedge, Yellow",[16]; [23],70
same,"Plant response rating, Nutsedge, Yellow",[16]; [24],10
same,"Plant response rating, Nutsedge, Yellow",[16]; [25],30
same,"Plant response rating, Nutsedge, Yellow",[16]; [26],85
same,"Plant response rating, Oat, Wild",[17]; [19],0
same,"Plant response rating, Oat, Wild",[17]; [21],0
same,"Plant response rating, Oat, Wild",[17]; [22],5
same,"Plant response rating, Oat, Wild",[17]; [23],10
same,"Plant response rating, Oat, Wild",[17]; [24],0
same,"Plant response rating, Oat, Wild",[17]; [25],0
same,"Plant response rating, Oat, Wild",[17]; [26],0
same,"Plant response rating, Blackgrass",[18]; [19],5
same,"Plant response rating, Blackgrass",[18]; [20],5
same,"Plant response rating, Blackgrass",[18]; [21],10
same,"Plant response rating, Blackgrass",[18]; [22],10
same,"Plant response rating, Blackgrass",[18]; [23],15
same,"Plant response rating, Blackgrass",[18]; [24],0
same,"Plant response rating, Blackgrass",[18]; [25],0
same,"Plant response rating, Blackgrass",[18]; [26],5
